Assay results as given in patent US20260248812A1, “METHODS OF TREATING CONGENITAL ADRENAL HYPERPLASIA” (Spruce Biosciences, Inc., priority 2019, published 2026).

Legend:
[1] = tested on: adults with classic CAH; assay: Phase 2 clinical study of Compound 3 with glucocorticoid: time matched change of serial hormone profiles (ACTH, 17-OHP, A4); type: in vivo, human; settings: non-dexamethasone subjects; for A4 level profile, time matched change from baseline: 6 am to 8 am
Method: Study Compound 3, a Phase 2, open-label, first-in-CAH-patients, proof-of-concept, dose ranging study, evaluated the safety and efficacy of repeated doses of SPR001 in adults with classic CAH. The population (n=24; with 2 subjects completing 2 cohorts) consisted of subjects with classic CAH that is not adequately controlled despite a stable glucocorticoid regimen based on the assessment of a single hormone at study screening, 17-OHP>800 ng/dl, which is 4 times the upper limit of a normal reference range of 17-OHP level. 17-OHP was chosen as the hormone as an inclusion criterion, as at the time, it represented the state-of-art in CAH for assessment of disease severity and adequacy of glucocorticoid therapy. The study comprised 3 cohorts, Cohort A was a 6-week intra-subject dose escalation treatment period with three 2-week treatment periods of 200 mg […] (QD) (only daily), 600 mg QD and 1000 mg QD without washout between treatment periods. Cohorts B and C consisted of 2-week treatment periods of either 100 bis in die (BID) (twice daily) (Cohort C) or 200 mg BID (Cohort B). At baseline, the following hormones were assessed, 17-OHP, ACTH and A4. The same hormones were assessed at the end of each 2-week treatment period.
A clinical study is conducted involving up to 52 weeks treatment of Compound 3 with concurrent daily glucocorticoid therapy for the treatment of adults with classic CAH. After screening using A4 and ACTH level criteria, eligible patients are enrolled into up to 12 weeks of placebo-controlled treatment followed by 40 weeks of open label treatment and a 4-week washout/safety follow-up period.
(§1) As part of the study, pre and pose concentrations of DEX and cortisol were measured. In some embodiments, the biomarker reduction analysis comprises all subjects.
(§2) A pooled baseline (dotted) and 2 lines (solid) representing two dose groups (doses=200 mg and doses >200 mg) using the percentage change from dose group baseline presented as percentage change from the pooled baseline. The figures are divided by disease control group, poor disease control with highly elevated ACTH and A4 and the good disease control group with ACTH and A4 that is near normal or below normal ranges. Each group has elevated 17-OHP.
as §2, with “In both groups, 17-OHP is elevated above its target (1200 ng/dL). The Y-axis is different with the poor disease control” for “Each”, “exceeding 8000 ng/dL in FIG. 3A and the good disease group was near an upper bound of approximately 3000 ng/dL in FIG. 3B.” for “has elevated 17-OHP.”

[2] = target: CYP3A4 pathway (Homo sapiens, UniProt P08684); assay: CYP3A4 pathway inhibition (statement); type: in vitro ADME; settings: dexamethasone is primarily metabolized through the CYP3A4 pathway
Method: as §1

CYP3A4 pathway, sequence (P08684 whole entry): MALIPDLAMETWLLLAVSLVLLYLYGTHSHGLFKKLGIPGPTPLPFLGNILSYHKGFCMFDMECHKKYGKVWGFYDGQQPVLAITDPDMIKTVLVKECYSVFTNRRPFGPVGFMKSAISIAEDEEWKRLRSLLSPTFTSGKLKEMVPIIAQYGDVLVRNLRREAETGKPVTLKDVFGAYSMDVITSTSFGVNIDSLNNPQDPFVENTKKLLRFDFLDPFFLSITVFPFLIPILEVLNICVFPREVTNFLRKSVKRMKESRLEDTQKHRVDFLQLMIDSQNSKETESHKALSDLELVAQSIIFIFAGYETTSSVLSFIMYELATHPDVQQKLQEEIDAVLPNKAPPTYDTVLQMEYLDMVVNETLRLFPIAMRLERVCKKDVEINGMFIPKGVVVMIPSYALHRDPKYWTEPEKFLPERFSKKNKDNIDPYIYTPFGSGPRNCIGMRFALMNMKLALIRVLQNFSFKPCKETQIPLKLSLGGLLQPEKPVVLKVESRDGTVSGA

In the case of `CCC(CC)c1cc(C)nc2c(-c3sc(N4CCOCC4)nc3Cl)c(C)nn12` [Compound 3, 4-(4-chloro-5-(2,5-dimethyl-7-(pentan-3-yl)pyrazolo[1,5-a]pyrimidin-3-yl)thiazol-2-yl)morpholine], the “17-OHP level, serial hormone profile, time matched change from baseline” value ([1]; both poor and good disease control groups, 10 pm to 8 am, FIGS. 3A and 3B) is reported as “reduced the magnitude of the increase in 17-OHP post 3 am”, the “ACTH level, serial hormone profile, time matched change from baseline” value ([1]; good disease control group (ACTH and A4 near or below normal), 10 pm to 8 am, FIG. 2B) is reported as “generally maintained the serial profile below the ULN” and the “A4 level profile, time matched change from baseline” value ([1]; good disease control group, FIG. 4B) is reported as “further reduce A4 level compared to the baseline level”. The “ACTH level, serial hormone profile, time matched change from baseline” value ([1]; poor disease control group (highly elevated ACTH and A4), 10 pm to 8 am, doses =200 mg and >200 mg, FIG. 2A) was “reduced the magnitude of the increase in ACTH post 3 am”, the “A4 level profile, time matched change from baseline” value ([1]; poor disease control group, blended gender based ULN approximately 212 ng/dL, FIG. 4A) was “improves the A4 profile in subjects toward the blended gender based ULN” and the “inhibition of the CYP3A4 pathway” value [2] was “inhibitor of the CYP3A4 pathway”.
